Values of other authors in patent US20160000731A1, “SORE-THROAT COMPOSITIONS AND RELATED METHODS” (Xlear, Inc., priority 2014, published 2016).

What was measured:
[1] = test system: dental caries; details: regular consumption
[2] = test system: Streptococcus pneumonia; details: in vitro, during its logarithmic growth phase

Q: What does the source list for `OC[C@@H](O)[C@H](O)[C@@H](O)CO` [Xylitol]?
A: incidence of dental caries [1]: reduce the incidence of dental caries; growth of Streptococcus pneumonia [2]: inhibit the growth
